What follows are compounds tested against T1, full-length human PKCι (Homo sapiens, UniProt P41743) (assay: PKCι IC50 IMAP fluorescence polarisation assay, full-length enzyme). Settings: full length PKCi at 15 μM ATP; read-out: IC50 in IMAP assay against full length PKCi.
T1 construct: Recombinant, full-length human PKCι expressed in Sf21 insect cells is also commercially available; purchased; host or cells: Sf21 insect cells
T1 sequence (P41743 1-596): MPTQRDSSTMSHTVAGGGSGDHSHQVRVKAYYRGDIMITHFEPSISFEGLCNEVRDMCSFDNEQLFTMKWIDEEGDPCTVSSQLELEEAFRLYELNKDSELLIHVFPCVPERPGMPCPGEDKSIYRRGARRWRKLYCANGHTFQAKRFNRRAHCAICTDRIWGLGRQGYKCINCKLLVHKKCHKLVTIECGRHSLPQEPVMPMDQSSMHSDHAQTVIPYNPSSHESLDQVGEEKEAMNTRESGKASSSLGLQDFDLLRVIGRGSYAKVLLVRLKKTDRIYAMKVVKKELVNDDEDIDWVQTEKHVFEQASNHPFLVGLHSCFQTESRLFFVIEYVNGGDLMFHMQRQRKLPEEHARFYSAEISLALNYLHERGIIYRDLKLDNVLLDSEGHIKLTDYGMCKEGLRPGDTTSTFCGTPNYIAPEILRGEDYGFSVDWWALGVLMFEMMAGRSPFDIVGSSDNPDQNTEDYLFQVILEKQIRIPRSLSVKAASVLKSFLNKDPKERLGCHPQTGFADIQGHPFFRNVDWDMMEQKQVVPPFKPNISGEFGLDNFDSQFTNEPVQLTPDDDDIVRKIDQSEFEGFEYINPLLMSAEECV
Format: biochemical

Row | Structure (SMILES) | IC50 [µM]
1 | CCC[C@H](O)C#Cc1csc2c(NC[C@@H](N)Cc3ccccc3)nc(-c3ccncc3)nc12 [compound 526, (S)-1-[4-((S)-2-Amino-3-phenyl-propylamino)-2-pyridin-4-yl-thieno[3,2-d]pyrimidin-7-yl]-hex-1-yn-3-ol] | 0.1 to 1
2 | CCCC#Cc1csc2c(NC[C@@H](N)Cc3ccccc3)nc(-c3ccncc3)nc12 [compound 401, (S)-N*1*-(7-Pent-1-ynyl-2-pyridin-4-yl-thieno[3,2-d]pyrimidin-4-yl)-3-phenyl-propane-1,2-diamine] | 0.1 to 1
3 | C[C@H](O)C#Cc1csc2c(NC[C@@H](N)Cc3ccccc3)nc(-c3ccncc3F)nc12 [compound 508, (S)-4-[4-((S)-2-Amino-3-phenyl-propylamino)-2-(3-fluoro-pyridin-4-yl)-thieno[3,2-d]pyrimidin-7-yl]-but-3-yn-2-ol] | 0.1 to 1
4 | NC(CNc1nc(-c2ccncc2F)nc2c(-c3ccncc3)csc12)Cc1ccccc1 (stereo in doubt) [compound 429, (R)-N*1*-[2-(3-Fluoro-pyridin-4-yl)-7-pyridin-4-yl-thieno[3,2-d]pyrimidin-4-yl]-3-phenyl-propane-1,2-diamine] | 1 to 10
5 | CN(C)C(=O)c1csc2c(NC[C@@H](N)Cc3ccccc3)nc(-c3ccncc3)nc12 [compound 550, 4-((S)-2-Amino-3-phenyl-propylamino)-2-pyridin-4-yl-thieno[3,2-d]pyrimidine-7-carboxylic acid dimethylamide] | 1 to 10
6 | N[C@H](CNc1nc(-c2ccncc2)nc2c(-c3ccon3)csc12)Cc1ccccc1 [compound 572, (S)-N*1*-(7-Isoxazol-3-yl-2-pyridin-4-yl-thieno[3,2-d]pyrimidin-4-yl)-3-phenyl-propane-1,2-diamine] | 0.1 to 1
7 | N[C@H](CNc1nc(-c2ccncc2)nc2c(-n3ccnn3)csc12)Cc1ccccc1 [compound 562, (S)-3-Phenyl-N*1*-(2-pyridin-4-yl-7-[1,2,3]triazol-1-yl-thieno[3,2-d]pyrimidin-4-yl)-propane-1,2-diamine] | 0.1 to 1
8 | Cc1cc(Nc2csc3c(N[C@@H]4CCNC4)nc(-c4ccncc4F)nc23)no1 [compound 496, 2-(3-Fluoro-pyridin-4-yl)-N*7*-(5-methyl-isoxazol-3-yl)-N*4*-(R)-pyrrolidin-3-yl-thieno[3,2-d]pyrimidine-4,7-diamine] | 10 to 40
9 | Cc1ncccc1-c1c(C)sc2c(NC[C@@H](N)Cc3ccccc3)nc(-c3ccncc3)nc12 [compound 459, (S)-N*1*-[6-Methyl-7-(2-methyl-pyridin-3-yl)-2-pyridin-4-yl-thieno[3,2-d]pyrimidin-4-yl]-3-phenyl-propane-1,2-diamine] | 10 to 40
10 | CCNC(=O)c1csc2c(NC[C@@H](N)Cc3ccccc3)nc(-c3ccncc3)nc12 [compound 554, 4-((S)-2-Amino-3-phenyl-propylamino)-2-pyridin-4-yl-thieno[3,2-d]pyrimidine-7-carboxylic acid ethylamide] | 0.1 to 1
11 | Cc1c(Br)sc2c(N[C@@H]3CCNC3)nc(-c3ccncc3)nc12 [compound 340, (6-Bromo-7-methyl-2-pyridin-4-yl-thieno[3,2-d]pyrimidin-4-yl)-(R)-pyrrolidin-3-yl-amine] | 0.1 to 1
12 | O=S(=O)(Nc1cc(-c2nc(N[C@@H]3CCNC3)c3sccc3n2)ccn1)c1ccccc1 [compound 576, N-{4-[4-((R)-Pyrrolidin-3-ylamino)-thieno[3,2-d]pyrimidin-2-yl]-pyridin-2-yl}-benzenesulfonamide] | 10 to 40
13 | COc1ccc(OC)c(-c2c(C)sc3c(NC[C@@H](N)Cc4ccccc4)nc(-c4ccncc4)nc23)c1 [compound 466, (S)-N*1*-[7-(2,5-Dimethoxy-phenyl)-6-methyl-2-pyridin-4-yl-thieno[3,2-d]pyrimidin-4-yl]-3-phenyl-propane-1,2-diamine] | 10 to 40
14 | N[C@H](CNc1nc(-c2ccncc2)nc2c(-c3cc[nH]c3)csc12)Cc1ccccc1 [compound 398, (S)-3-Phenyl-N*1*-[2-pyridin-4-yl-7-(1H-pyrrol-3-yl)-thieno[3,2-d]pyrimidin-4-yl]-propane-1,2-diamine] | 0.1 to 1
15 | O=C(Nc1cc(-c2nc(N[C@@H]3CCNC3)c3sccc3n2)ccn1)c1ccco1 [compound 574, Furan-2-carboxylic acid {4-[4-((R)-pyrrolidin-3-ylamino)-thieno[3,2-d]pyrimidin-2-yl]-pyridin-2-yl}-amide] | 1 to 10
16 | c1cc(-c2nc(N[C@@H]3CCNC3)c3sccc3n2)cc(NCC2CC2)n1 [compound 597, {2-[2-(Cyclopropylmethyl-amino)-pyridin-4-yl]-thieno[3,2-d]pyrimidin-4-yl}-(R)-pyrrolidin-3-yl-amine] | 1 to 10
17 | Cc1sc2c(NCCN)nc(-c3ccncc3)nc2c1C [compound 309, N*1*-(6,7-Dimethyl-2-pyridin-4-yl-thieno[3,2-d]pyrimidin-4-yl)-ethane-1,2-diamine] | 1 to 10
18 | Cc1sc2c(NC[C@@H](N)Cc3ccccc3)nc(-c3ccncc3)nc2c1-c1c(Cl)cccc1C(F)(F)F [compound 452, (S)-N*1*-[7-(2-Chloro-6-trifluoromethyl-phenyl)-6-methyl-2-pyridin-4-yl-thieno[3,2-d]pyrimidin-4-yl]-3-phenyl-propane-1,2-diamine] | 10 to 40
19 | N[C@H](CNc1nc(-c2ccnc(NC(=O)c3cccs3)c2)nc2ccsc12)Cc1ccc(C(F)(F)F)cc1 [compound 630, Thiophene-2-carboxylic acid (4-{4-[(S)-2-amino-3-(4-trifluoromethyl-phenyl)-propylamino]-thieno[3,2-d]pyrimidin-2-yl}-pyridin-2-yl)-amide] | 10 to 40
20 | Fc1cnccc1-c1nc(N[C@@H]2CCNC2)c2sccc2n1 [compound 354, [2-(3-Fluoro-pyridin-4-yl)-thieno[3,2-d]pyrimidin-4-yl]-(R)-pyrrolidin-3-yl-amine] | 10 to 40
21 | CS(=O)(=O)Nc1cc(-c2nc(N[C@@H]3CCNC3)c3sccc3n2)ccn1 [compound 624, N-{4-[4-((R)-Pyrrolidin-3-ylamino)-thieno[3,2-d]pyrimidin-2-yl]-pyridin-2-yl}-methanesulfonamide] | 10 to 40
22 | COc1ccc(F)cc1-c1c(C)sc2c(NC[C@@H](N)Cc3ccccc3)nc(-c3ccncc3)nc12 [compound 467, (S)-N*1*-[7-(5-Fluoro-2-methoxy-phenyl)-6-methyl-2-pyridin-4-yl-thieno[3,2-d]pyrimidin-4-yl]-3-phenyl-propane-1,2-diamine] | 10 to 40
23 | Cc1sc2c(NC[C@@H](N)Cc3ccccc3)nc(-c3ccncc3)nc2c1C#CC(C)(C)O [compound 504, 4-[4-((S)-2-Amino-3-phenyl-propylamino)-6-methyl-2-pyridin-4-yl-thieno[3,2-d]pyrimidin-7-yl]-2-methyl-but-3-yn-2-ol] | < 0.1

Same assay, conditions: full length PKCi at 15 μM ATP; read-out: IC50 in IMAP assay against full length PKCi (Activity)

Row | Structure (SMILES) | IC50 [µM]
24 | N[C@H](CNc1nc(-c2ccncc2)nc2sc3c(c12)CCCC3)Cc1ccc(F)cc1 [compound 50, (S)-3-(4-Fluoro-phenyl)-N*1*-(2-pyridin-4-yl-5,6,7,8-tetrahydro-benzo[4,5]thieno[2,3-d]pyrimidin-4-yl)-propane-1,2-diamine] | 1 to 10
25 | NCCNc1nc(-c2ccncc2)nc2sc3c(c12)CCCC3 [compound 12, N*1*-(2-pyridin-4-yl-5,6,7,8-tetrahydro-benzo[4,5]thieno[2,3-d]pyrimidin-4-yl)-ethane-1,2-diamine] | 0.1 to 1
26 | N[C@H](CNc1nc(-c2ccncc2)nc2sc3c(c12)CCCC3)Cc1ccc(O)cc1 [compound 55, 4-[(S)-2-Amino-3-(2-pyridin-4-yl-5,6,7,8-tetrahydro-benzo[4,5]thieno[2,3-d]pyrimidin-4-ylamino)-propyl]-phenol] | 1 to 10
27 | N[C@H](CNc1nc(-c2ccncc2)nc2sc3c(c12)CCCC3)Cc1ccccc1O [compound 65, 2-[(S)-2-amino-3-(2-pyridin-4-yl-5,6,7,8-tetrahydro-benzo[4,5]thieno[2,3-d]pyrimidin-4-ylamino)-propyl]-phenol] | < 0.1
28 | N[C@@H](CNc1nc(-c2ccncc2)nc2sc3c(c12)CCCC3)Cc1cccc2ccccc12 [compound 52, (R)-3-Naphthalen-1-yl-N*1*- (2-pyridin-4-yl-5,6,7,8-tetrahydro-benzo[4,5]thieno[2,3-d]pyrimidin-4-yl)-propane-1,2-diamine] | 1 to 10
29 | N[C@H](CNc1nc(-c2ccncc2)nc2sc3c(c12)CCOC3)Cc1ccccc1 [compound 82, (S)-3-Phenyl-N*1*-(2-pyridin-4-yl-5,8-dihydro-6H-pyrano[4′,3′:4,5]thieno[2,3-d]pyrimidin-4-yl)-propane-1,2-diamine] | 1 to 10
30 | C[C@H](N)CNc1nc(-c2ccncc2)nc2sc3c(c12)CCN(C(=O)OC(C)(C)C)C3 [compound 96, 4-((S)-2-Amino-propylamino)-2-pyridin-4-yl-5,8-dihydro-6H-pyrido[4′,3′:4,5]thieno[2,3-d]pyrimidine-7-carboxylic acid tert-butyl ester] | 10 to 40
31 | COc1cnccc1-c1nc(NC[C@@H](N)Cc2ccccc2)c2c3c(sc2n1)CCCC3 [compound 102, (S)—N*1*-[2-(3-methoxy-pyridin-4-yl)-5,6,7,8-tetrahydro-benzo[4,5]thieno[2,3-d]pyrimidin-4-yl]-3-phenyl-propane-1,2-diamine] | 10 to 40
